The subject of series [1] is cells of rat spleen. Kind of series: cells. Format: cell-based, SD rat. As to conditions: for minimal effective concentration: 24 h, read-out: Minimum effective concentration (interferon inducing activity).
Series [2] can be described thus: Metabolic stability on liver S9 of rat. As to conditions: rat liver S9, test compound 1 μM, 37° C.
Protocol: The compound of the present invention is added to liver S9 solution, and the mixture is incubated at 37±0.5° C. for 5 minutes to 2 hours. By quantitatively analyzing at the definite interval the amount of the compound of the present invention remaining in the liver S9 solution with HPLC (high performance liquid chromatography), etc., the constant of quenching velocity is calculated and the half life is calculated.
The reaction on river S9 of a rat was carried out on a 96-well plate by using a robot for screening by Tecan Company. S9 solution was prepared by adding to 10 ml of liver S9 of a rat, 20 ml of 250 mM Kpi (pH 7.4) and 20 ml of deionized water. Cofactor solution was prepared by dissolving NADPH (220 mg) in deionized water (40.5 ml) to give finally a 6 mM solution. IS (Internal Standard) solution was prepared by adding 300 μL of IS solution (1 mM DMSO solution) to 30 ml of acetonitrile solution (100 times dilution). The test compound (1 μM DMSO solution) was dissolved in an incubator at 37° C., 35 μL of it was poured into each well of a 96-well plate (24 samples/plate and then, plates (a sample plate, a 96 well-plate for dilution, deep well plates for reaction and recovering, a plate for extraction of the solid phase) and the test samples (S9 solution, Cofactor solution, IS (Internal Standard) solution, Stop solution, acetonitrile for elution) were set to the specified position in the booth of the robot. The reaction started (the concentration of the test compound was 1 μM) and the mixture was incubated at 37° C. under stirring. The solid phase was extracted and at the same time the internal standard for analysis was added. To the recovered sample (200 μL/well) was added 50 μL of acetonitrile per each well and to 2 plates of FALCON Deep well were poured 100 μL of the solution per well. By subjecting to the LC/MS analysis, the chromatogram of the test sample and the internal standard were described and the peak area was calculated. And then, the stability (residual rate after reaction) was calculated by the internal standard method.

For the molecule `Nc1nc(CCC(=O)O)nc2c1nc(O)n2Cc1ccccc1` [Comparative example 15, 9-Benzyl-2-(2-carboxyethyl)-8-hydroxyadenine, reference compound], the minimal effective concentration in series [1] came out at 1 µM.
`COCCOc1nc(N)c2nc(O)n(Cc3cccc(CC(=O)O)c3)c2n1` [Comparative example 27, 9-(3-Carboxymethylbenzyl)-8-hydroxy-2-(2-methoxyethoxy)adenine, reference compound]: in series [1], the minimal effective concentration was 0.3 µM.
For the molecule `CCCCOc1nc(N)c2nc(O)n(Cc3ccc(C(=O)OCc4ccccc4)cc3)c2n1` [Example 14, 2-Butoxy-8-hydroxy-9-(4-benzyloxycarbonylbenzyl)adenine], the Residual rate in series [2] was found to be 22%.
Take `CCCCOc1nc(N)c2nc(O)n(Cc3ccc(OCC(=O)OC)c(Br)c3)c2n1` [Example 23, 2-Butoxy-8-hydroxy-9-{3-bromo-4-(methoxycarbonylmethoxy)benzyl}adenine]: the minimal effective concentration in series [1] is 0.1 µM.
With `Nc1nc(SCC(=O)N2CCOCC2)nc2c1nc(O)n2Cc1ccccc1` [Example 52, 9-Benzyl-8-hydroxy-2-(morphorinocarbonylmethyl)thioadenine], the Residual rate in series [2] amounted to 24%.
`CCOC(=O)CCCCSc1nc(N)c2nc(O)n(Cc3ccccc3)c2n1` [Example 57, 9-Benzyl-2-(4-ethoxycarbonylbutyl)thio-8-hydroxyadenine] showed a Residual rate in series [2] of 3%.
In the case of `CSC(=O)CCc1nc(N)c2nc(O)n(Cc3ccccc3)c2n1` [Example 63], the “Minimum effective concentration (interferon inducing activity)” value (from here on “Minimum effective concentration”) in series [1] is 100 nM. In series [2], this molecule registered a Residual rate of 0%.
The corresponding values for `COC(=O)CCc1nc(N)c2nc(O)n(Cc3ccc(C)nc3)c2n1` [Example 66, 8-Hydroxy-2-methoxycarbonylethyl-9-{(6-methyl-3-pyridyl)methyl}adenine] are 1 nM and 0%.
For the molecule `COC(=O)CCc1nc(N)c2nc(O)n(Cc3ccc(CC(=O)OC)cc3)c2n1` [Example 67, 8-Hydroxy-2-(2-methoxycarbonylethyl)-9-(4-methoxycarbonylmethylbenzyl)adenine], in series [1], the minimal effective concentration is 0.001 µM. The Residual rate in series [2] worked out at 0%.
`CCCCOc1nc(N)c2nc(O)n(Cc3ccc(CC(=O)OCCN(C)C)cc3)c2n1.Cl` [Example 72, 2-Butoxy-8-hydroxy-9-{4-(2-dimethylaminoethoxycarbonyl)methylbenzyl}adenine hydrochloride] registered a Residual rate in series [2] of 4%.
On to `CCCCOc1nc(N)c2nc(O)n(Cc3ccc(CC(N)=O)cc3)c2n1` [Example 76, 2-Butoxy-8-hydroxy-9-(4-carbamoylmethylbenzyl)adenine], for which the minimal effective concentration in series [1] worked out at 0.0001 µM.
Consider `CCCCOc1nc(N)c2nc(O)n(Cc3ccc(CC(=O)NC)cc3)c2n1` [Example 77, 2-Butoxy-8-hydroxy-9-(4-methylcarbamoylmethylbenzyl)adenine], for which the minimal effective concentration in series [1] came out at 0.0003 µM.
Same read-out and setting: as for `CCCCOc1nc(N)c2nc(O)n(Cc3ccc(CC(=O)N(C)C)cc3)c2n1` [Example 78, 2-Butoxy-8-hydroxy-9-(4-dimethylcarbamoylmethylbenzyl)adenine], the figure is 3e-05 µM.
Turning to `CCCCOc1nc(N)c2nc(O)n(Cc3ccc(CN4CCOCC4)cc3)c2n1` [Example 79, 2-Butoxy-8-hydroxy-9-(4-morpholinomethylbenzyl)adenine], in series [1], the minimal effective concentration was determined as 0.0003 µM. In series [2], this molecule registered a Residual rate of 17%.
The corresponding values for `CCCCOc1nc(N)c2nc(O)n(Cc3ccc(CC(=O)OC)o3)c2n1` [Example 81, 2-Butoxy-8-hydroxy-9-(5-methoxycarbonylmethylfurfuryl)adenine] are 0.001 µM and 2%.
Turning to `CCCCOc1nc(N)c2nc(O)n(Cc3ccc(C(=O)SC)nc3)c2n1` [Example 82, 2-Butoxy-8-hydroxy-9-{(6-S-methylthiocarbonyl-3-pyridyl)methyl}adenine], in series [1], the “Minimum effective concentration” value was 100 nM. For the same molecule, the Residual rate in series [2] is listed as 2%.
As for `CCCCOc1nc(N)c2nc(O)n(Cc3ccc(C(N)=O)nc3)c2n1` [Example 83, 2-Butoxy-9-{(6-carbamoyl-3-pyridyl)methyl}-8-hydroxyadenine], the minimal effective concentration in series [1] was determined as 0.0003 µM.
For the molecule `CCCCOc1nc(N)c2[nH]c(=O)n(Cc3cccc(CCC(=O)OC)c3)c2n1` [Example 84, 2-Butoxy-8-hydroxy-9-(3-methoxycarbonylethylbenzyl)adenine], the minimal effective concentration in series [1] is 0.01 µM. Further, in series [2], the Residual rate amounted to 1%.
As for `CCCCOc1nc(N)c2nc(O)n(Cc3ccc(CCC(=O)OCC)cc3)c2n1` [Example 86, 2-Butoxy-9-(4-ethoxycarbonylethylbenzyl)-8-hydroxyadenine], the Residual rate in series [2] worked out at 18%.
On to `CCCCOc1nc(N)c2nc(O)n(Cc3ccc(N4CCC(C(=O)OC)CC4)nc3)c2n1` [Example 87, 2-Butoxy-8-hydroxy-9-{6-(4-methoxycarbonyl-1-piperidyl)-3-pyridylmethyl}adenine], for which the minimal effective concentration in series [1] was found to be 0.001 µM.
Regarding `CCCCOc1nc(N)c2nc(O)n(Cc3ccc(C(=O)OC)c(C(=O)OC)c3)c2n1` [Example 90, 2-Butoxy-9-(3,4-dimethoxycarbonylbenzyl)-8-hydroxyadenine], the minimal effective concentration in series [1] was 0.0003 µM. The molecule further came in with a Residual rate in series [2] of 3%.
As for `CCCCOc1nc(N)c2nc(O)n(Cc3ccc(SC4CCOC4=O)nc3)c2n1` (centres unmarked) [Example 93], in series [1], the “Minimum effective concentration” value is 3 nM.
On to `CCCCOc1nc(N)c2nc(O)n(Cc3ccc(OC4CCOC4=O)cc3)c2n1` (centres unmarked) [Example 94, 2-Butoxy-9-{4-(γ-butyrolactonyloxy)benzyl}-8-hydroxyadenine], for which, in series [2], the Residual rate is on record as 2%.
In the case of `CCCCOc1nc(N)c2nc(O)n(Cc3ccc(OC(O)CCC(=O)OC)cc3)c2n1` (centres unmarked) [Example 95, 2-Butoxy-9-{4-(1-hydroxy-3-methoxycarbonylpropoxy)benzyl}-8-hydroxyadenine], the minimal effective concentration in series [1] stood at 0.001 µM. The same molecule registered a Residual rate in series [2] of 4%.
For `COCCOc1nc(N)c2[nH]c(=O)n(Cc3cccc(CC(=O)OC)c3)c2n1` [Example 96, 8-Hydroxy-9-(3-methoxycarbonylmethylbenzyl)-2-(2-methoxyethoxy)adenine], the minimal effective concentration in series [1] worked out at 0.003 µM. This molecule also had a Residual rate in series [2] of 0%.
The corresponding values for `CCCCOc1nc(N)c2nc(O)n(Cc3ccc(C(C)C(=O)OC)cc3)c2n1` (centres unmarked) [Example 100, 2-Butoxy-8-hydroxy-9-[4-(1-methoxycarbonylethyl)benzyl]adenine] are 0.0003 µM and 1%.
For `COC(=O)c1ccc(CSc2nc(N)c3nc(O)n(Cc4ccccc4)c3n2)cc1` [Example 104, 9-Benzyl-8-hydroxy-2-[(4-methoxycarbonylbenzyl)thio]adenine], in series [1], the minimal effective concentration came to 0.1 µM.
Consider `COC(=O)Cc1cccc(CSc2nc(N)c3nc(O)n(Cc4ccccc4)c3n2)c1` [Example 105, 9-Benzyl-8-hydroxy-2-[(3-methoxycarbonylmethylbenzyl)thio]adenine], for which the minimal effective concentration in series [1] worked out at 0.3 µM. The molecule further came in with a Residual rate in series [2] of 1%.
Take `Nc1nc(CC(=O)N2CCOCC2)nc2c1nc(O)n2Cc1ccccc1` [Example 110, 9-Benzyl-8-hydroxy-2-(morpholinocarbonylmethyl)adenine]: the minimal effective concentration in series [1] worked out at 0.1 µM.
Still for that read-out and setting: as for `Nc1nc(OCC(=O)O)nc2c1nc(O)n2Cc1ccccc1` [compound 16, 9-Benzyl-8-hydroxy-2-calboxylmethoxyadenine, reference compound], the figure is 1 µM.
On the same count and under the same terms, as for `Cc1ccc(Cn2c(O)nc3c(N)nc(CCC(=O)O)nc32)cn1` [compound 17, reference compound], the figure is 0.3 µM.
On the same count and under the same terms, the same measure for `Nc1nc(CCC(=O)O)nc2c1nc(O)n2Cc1ccc(CC(=O)O)cc1` [compound 18, 2-(2-Carboxylethyl)-9-(4-carboxylmethylbenzyl)-8-hydroxyadenine, reference compound]: 3 µM.
`CCCCOc1nc(N)c2nc(O)n(Cc3ccc(CC(=O)O)o3)c2n1` [compound 19, 2-Butoxy-9-(5-carboxylmethylfurfuryl)-8-hydroxyadenine, reference compound]: the minimal effective concentration in series [1] stood at 0.03 µM.
Still for that read-out and setting: the same measure for `CCCCOc1nc(N)c2nc(O)n(Cc3cccc(CCC(=O)O)c3)c2n1` [compound 20, reference compound]: 0.03 µM; for `CCCCOc1nc(N)c2nc(O)n(Cc3ccc(N4CCC(C(=O)O)CC4)nc3)c2n1` [compound 21, reference compound]: 0.003 µM; for `CCCCOc1nc(N)c2nc(O)n(Cc3ccc(C(=O)O)c(C(=O)O)c3)c2n1` [compound 23, 2-Butoxy-9-(3,4-dicarboxylbenzyl)-8-hydroxyadenine, reference compound]: 0.1 µM.
On the same count and under the same terms, the same measure for `CCCCOc1nc(N)c2nc(O)n(Cc3ccc(C(C)C(=O)O)cc3)c2n1` (centres unmarked) [compound 31, 2-Butoxy-8-hydroxy-9-[4-(1-carboxyethyl)benzyl]adenine, reference compound]: 0.03 µM; for `Nc1nc(SCc2cccc(C(=O)O)c2)nc2c1nc(O)n2Cc1ccccc1` [compound 34, 9-Benzyl-8-hydroxy-2-[(3-carboxybenzyl)thio]adenine, reference compound]: 0.3 µM.
The same measure, in the same setting: the same measure for `Nc1nc(SCc2ccc(C(=O)O)cc2)nc2c1nc(O)n2Cc1ccccc1` [compound 35, 9-Benzyl-8-hydroxy-2-[(4-carboxybenzyl)thio]adenine, reference compound]: 1 µM; for `Nc1nc(SCc2cccc(CC(=O)O)c2)nc2c1nc(O)n2Cc1ccccc1` [compound 36, 9-Benzyl-8-hydroxy-2-[(3-carboxymethylbenzyl)thio]adenine, reference compound]: 3 µM.
For the molecule `Nc1nc(SCc2ccc(CC(=O)O)cc2)nc2c1nc(O)n2Cc1ccccc1` [compound 37, 9-Benzyl-8-hydroxy-2-[(4-carboxymethylbenzyl)thio]adenine, reference compound], the minimal effective concentration in series [1] came out at 1 µM.

Values taken from US8148371B2, “Adenine compound and use thereof” (Dainippon Sumitomo Pharma Co., Ltd., priority 2002, dated 2012).
